Test results published in PubChem BioAssay AID2060486 (Molecular Pharmacology Branch, DTP, NCI, 2025).

System: IGROV1 complex spheroids (HUVEC, MSC), viability % test/control
Experiment: Anticancer human tumor IGROV1 cell line growth inhibition [GQUAD];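 also: spheroids exposed to compounds for 7 days before readout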
Details: for IC50: curve of first compound; for viability, T/C: stronger effect = lower value
Description: DNA G-quadruplex Stabilizer Agents in Combinations in Complex Spheroids
A high-throughput screen of multi-cell type tumor spheroids was designed to identify active combinations of DNA G-quadruplex stabilizer agents and targeted small molecules. Complex spheroids include a stromal component modeled by human endothelial cells (HUVEC) and fibroblasts modeled by human mesenchymal stem cells (MSCs). The concentration ranges selected for each drug and investigational agent were based upon clinically achievable concentrations if the clinical Cmax of the agent was known.
Compounds. The drugs and investigational agents: pidnarulex (CX-5461; NSC782164), APTO-253 (NSC789042), BRACO-19 (NSC847499), peposertib (NSC802822), ceralasertib (NSC780249), elimusertib (NSC800525), camonsertib (NSC841442), AZD-1390 (NSC803789), olaparib (NSC753686), talazoparib (NSC767125), ART-558 (NSC835418), sotorasib (NSC818433), MRTX-1133 (NSC836407), SN-38 (NSC673596), topotecan (NSC609699), etoposide (NSC141540), doxorubicin (NSC123127), gemcitabine (NSC613327), 5-fluorouracil (NSC19893), paclitaxel (NSC125973), vemurafenib (NSC761431), panobinostat (NSC761190), R-306465 (JNJ-16241199; NSC773264), adavosertib (NSC754352), TP-3654 (NSC805149), carboplatin (NSC241240), KSQ-4279 (NSC840948), and staurosporine (NSC755774) were obtained from the National Cancer Institute (NCI) Developmental Therapeutics Program Chemical Repository (34). The FDA-approved anticancer drug set is available from the NCI Developmental Therapeutics Program. […] The stock solutions were prepared in dimethyl sulfoxide (DMSO, Sigma-Aldrich, St. Louis, MO, cat. D2650) at 800-fold the tested concentration and stored at -70 degrees C prior to their use. All drugs and investigational agents were tested over a range starting from a high concentration at or near the clinical Cmax and decreasing in half-log increments. If the clinical Cmax for an agent had not been determined, the highest concentration tested was 10 microM.
2.3 Cell Culture. All cells were maintained in an incubator at 37 degrees C and 5% CO2 with 95% humidity. The PDC lines were cultured according to standard operating procedures established by the NCI PDMR. All PDCs were thawed and cultured in Matrigel-coated flasks prepared with a working solution of 1X Ham's F-12 nutrient mix, without supplementation (Invitrogen, cat. 11765054), 100 U/mL penicillin-streptomycin (Invitrogen, cat. 15140122), and 2.5% Matrigel (Corning Inc., cat. 354248) for the first three passages. The 857933-349-R-J2-PDC line was cultured in 6C/Colon 1B media, which includes advanced DMEM/F-12 (Thermo Fisher Scientific, cat. 12634028), 10 mM HEPES (Thermo Fisher Scientific, cat. 15630080), 1X GlutaMAX supplement (Thermo Fisher Scientific, cat. 35050061), 0.1 mg/mL primocin (InvivoGen, cat. ant-pm-2), 10% defined fetal bovine serum, heat inactivated (HyClone Laboratories Inc., cat. SH30070.03HI), 50% L-WRN conditioned media (ATCC, cat. CRL-3276), 1.25 mM N-Acetyl-L-cysteine (Sigma-Aldrich, cat. A9165), 10 mM nicotinamide (Sigma-Aldrich, cat. N0636), 1X B-27 supplement (Thermo Fisher Scientific, cat. 17504044), 1X N-2 supplement (Thermo Fisher Scientific, cat. 17502048), 10 microM Y-27632 dihydrochloride (Tocris Bioscience, cat. 1254), and 50 ng/mL human EGF recombinant protein (Thermo Fisher Scientific, cat. PHG0311). The 485176-168-R4-J1-PDC line was cultured in Panc media, which includes all 6C/Colon 1B media components plus 100 ng/mL human FGF-10 (Thermo Fisher Scientific, cat. 100-26), 500 nM SB-431542 (Selleckchem, cat. S1067), and gastrin (Tocris, cat. 3006).
[…]

[1] = second compound 0.0316 µM, first compound 0.0316 µM
[2] = second compound 0.0316 µM, first compound 0.1 µM
[3] = second compound 0.0316 µM, first compound 0.316 µM
[4] = second compound 0.0316 µM, first compound 1 µM
[5] = second compound 0.0316 µM, first compound 3.16 µM
[6] = second compound 0.0316 µM, first compound 10 µM
[7] = second compound 0.1 µM, first compound 0.0316 µM
[8] = second compound 0.1 µM, first compound 0.1 µM
[9] = second compound 0.1 µM, first compound 0.316 µM
[10] = second compound 0.1 µM, first compound 1 µM
[11] = second compound 0.1 µM, first compound 3.16 µM
[12] = second compound 0.1 µM, first compound 10 µM
[13] = second compound 0.316 µM, first compound 0.0316 µM
[14] = second compound 0.316 µM, first compound 0.1 µM
[15] = second compound 0.316 µM, first compound 0.316 µM
[16] = second compound 0.316 µM, first compound 1 µM
[17] = second compound 0.316 µM, first compound 3.16 µM
[18] = second compound 0.316 µM, first compound 10 µM
[19] = second compound 1 µM, first compound 0.0316 µM
[20] = second compound 1 µM, first compound 0.1 µM
[21] = second compound 1 µM, first compound 0.316 µM
[22] = second compound 1 µM, first compound 1 µM
[23] = second compound 1 µM, first compound 3.16 µM
[24] = second compound 1 µM, first compound 10 µM
[25] = second compound 3.16 µM, first compound 0.0316 µM
[26] = second compound 3.16 µM, first compound 0.1 µM
[27] = second compound 3.16 µM, first compound 0.316 µM
[28] = second compound 3.16 µM, first compound 1 µM
[29] = second compound 3.16 µM, first compound 3.16 µM
[30] = second compound 3.16 µM, first compound 10 µM
[31] = second compound 10 µM, first compound 0.0316 µM
[32] = second compound 10 µM, first compound 0.1 µM
[33] = second compound 10 µM, first compound 0.316 µM
[34] = second compound 10 µM, first compound 1 µM
[35] = second compound 10 µM, first compound 3.16 µM
[36] = second compound 10 µM, first compound 10 µM

COc1cc(C2c3cc4c(cc3C(OC3OC5COC(C)OC5C(O)C3O)C3COC(=O)C23)OCO4)cc(OC)c1O (stereo unspecified) + Cc1cnc(CNC(=O)c2c(=O)c3ccc(N4CCCN(C)CC4)nc3n3c2sc2ccccc23)cn1
IC50 (second compound 0.0316 µM): 56.4 nM
IC50 (second compound 0.1 µM): < 31.6 nM
IC50 (second compound 0.316 µM): < 31.6 nM
IC50 (second compound 1 µM): < 31.6 nM
IC50 (second compound 3.16 µM): < 31.6 nM
IC50 (second compound 10 µM): < 31.6 nM
viability, T/C [1]: 67.3%
viability, T/C [2]: 32.8%
viability, T/C [3]: 16.3%
viability, T/C [4]: 13.5%
viability, T/C [5]: 8.96%
viability, T/C [6]: 4.09%
viability, T/C [7]: 37.6%
viability, T/C [8]: 27.9%
viability, T/C [9]: 16%
viability, T/C [10]: 10.6%
viability, T/C [11]: 8.64%
viability, T/C [12]: 5.71%
viability, T/C [13]: 25.1%
viability, T/C [14]: 19%
viability, T/C [15]: 14.4%
viability, T/C [16]: 8.91%
viability, T/C [17]: 8.97%
viability, T/C [18]: 5.79%
viability, T/C [19]: 12.8%
viability, T/C [20]: 13.7%
viability, T/C [21]: 13.6%
viability, T/C [22]: 11%
viability, T/C [23]: 7.71%
viability, T/C [24]: 6.49%
viability, T/C [25]: 9.53%
viability, T/C [26]: 11.8%
viability, T/C [27]: 9.99%
viability, T/C [28]: 9.79%
viability, T/C [29]: 9.02%
viability, T/C [30]: 5.67%
viability, T/C [31]: 9.66%
viability, T/C [32]: 11%
viability, T/C [33]: 10.7%
viability, T/C [34]: 9.61%
viability, T/C [35]: 9.67%
viability, T/C [36]: 6.31%

COc1cccc2c1C(=O)c1c(O)c3c(c(O)c1C2=O)CC(O)(C(=O)CO)CC3OC1CC(N)C(O)C(C)O1 (stereo unspecified) + Cc1cnc(CNC(=O)c2c(=O)c3ccc(N4CCCN(C)CC4)nc3n3c2sc2ccccc23)cn1
IC50 (second compound 0.0316 µM): < 31.6 nM
IC50 (second compound 0.1 µM): < 31.6 nM
IC50 (second compound 0.316 µM): < 31.6 nM
IC50 (second compound 1 µM): < 31.6 nM
IC50 (second compound 3.16 µM): < 31.6 nM
IC50 (second compound 10 µM): < 31.6 nM
viability, T/C [1]: 40.4%
viability, T/C [2]: 21.2%
viability, T/C [3]: 7.47%
viability, T/C [4]: 4.08%
viability, T/C [5]: 0.07%
viability, T/C [6]: 0.9%
viability, T/C [7]: 29.5%
viability, T/C [8]: 15.3%
viability, T/C [9]: 9.07%
viability, T/C [10]: 3.71%
viability, T/C [11]: 0.05%
viability, T/C [12]: 0.74%
viability, T/C [13]: 18.7%
viability, T/C [14]: 14.9%
viability, T/C [15]: 7.44%
viability, T/C [16]: 3.57%
viability, T/C [17]: 0.07%
viability, T/C [18]: 0.73%
viability, T/C [19]: 11.8%
viability, T/C [20]: 9.55%
viability, T/C [21]: 7.95%
viability, T/C [22]: 3.7%
viability, T/C [23]: 0.05%
viability, T/C [24]: 0.66%
viability, T/C [25]: 10.9%
viability, T/C [26]: 9.14%
viability, T/C [27]: 6.91%
viability, T/C [28]: 2.27%
viability, T/C [29]: 0.07%
viability, T/C [30]: 0.41%
viability, T/C [31]: 11.1%
viability, T/C [32]: 8.57%
viability, T/C [33]: 5.52%
viability, T/C [34]: 1.8%
viability, T/C [35]: 0.14%
viability, T/C [36]: 0.45%

Nc1ccn(C2OC(CO)C(O)C2(F)F)c(=O)n1 (stereo unspecified) + Cc1cnc(CNC(=O)c2c(=O)c3ccc(N4CCCN(C)CC4)nc3n3c2sc2ccccc23)cn1
IC50 (second compound 0.0316 µM): < 31.6 nM
IC50 (second compound 0.1 µM): < 31.6 nM
IC50 (second compound 0.316 µM): < 31.6 nM
IC50 (second compound 1 µM): < 31.6 nM
IC50 (second compound 3.16 µM): < 31.6 nM
IC50 (second compound 10 µM): < 31.6 nM
viability, T/C [1]: 10.5%
viability, T/C [2]: 5.6%
viability, T/C [3]: 5.15%
viability, T/C [4]: 4.7%
viability, T/C [5]: 4.99%
viability, T/C [6]: 4.44%
viability, T/C [7]: 12.7%
viability, T/C [8]: 4.99%
viability, T/C [9]: 8.19%
viability, T/C [10]: 6.35%
viability, T/C [11]: 5.18%
viability, T/C [12]: 3.96%
viability, T/C [13]: 11.5%
viability, T/C [14]: 5.16%
viability, T/C [15]: 5.92%
viability, T/C [16]: 5.56%
viability, T/C [17]: 4.85%
viability, T/C [18]: 4.62%
viability, T/C [19]: 11.1%
viability, T/C [20]: 7%
viability, T/C [21]: 6.75%
viability, T/C [22]: 6.61%
viability, T/C [23]: 4.42%
viability, T/C [24]: 4.28%
viability, T/C [25]: 6.61%
viability, T/C [26]: 7.28%
viability, T/C [27]: 6.54%
viability, T/C [28]: 5.77%
viability, T/C [29]: 5.25%
viability, T/C [30]: 3.96%
viability, T/C [31]: 9.97%
viability, T/C [32]: 6.38%
viability, T/C [33]: 5.25%
viability, T/C [34]: 7.22%
viability, T/C [35]: 5.43%
viability, T/C [36]: 3.66%
